Test results: patent US7758886B2, “Pharmaceutical aerosol composition” (Pari GmbH, priority 2003, dated 2010)
Converted amounts (≈) assume the structure as drawn. Blank lines part the entries; values can stand above or below the molecule they belong to.

Legend:
[1] = Saturation solubility of budesonide in buffered aqueous tyloxapol / DMPC solutions (0.22 μm filtrate); type: physicochemical; conditions: for solubility: buffered aqueous tyloxapol/DMPC solution, aqueous with cosolvent or surfactant or cyclodextrin, thermodynamic from solid
Procedure: Buffered aqueous solutions of tyloxapol, DMPC and tyloxapol in a mixture with DMPC were prepared. The saturation solubility of budesonide in these solutions was measured by adding an excess of budesonide and treating the sample with heat and ultrasound and subsequently allowing it to stand for equilibration. The equilibrated samples were filtered through a membrane filter with a poor width of 0.22 μm and the content of budesonide in the filtrate was determined.

[2] = Colloidal solubilization of corticosteroid with non-ionic surfactant and lecithin (Lipoid S 100); type: physicochemical; conditions: for solubility: pH 4.5, aqueous with cosolvent or surfactant or cyclodextrin
Procedure: In analogy to example 2, colloidal solutions of budesonide were prepared using polysorbate 80 as non-ionic surfactant component (instead of tyloxapol) and lecithin of the commercial grade, Lipoid S 100, as phospholipid component. Citric acid and sodium citrate were used as buffer system to adjust the pH to 4.5. Sodium chloride (0.846% w/w) was used as osmotic excipient. Disodium edetate (0.01% w/w) was incorporated as stabilizer preventing oxidation.
The taste of the samples was acceptable. The average diameter of the colloidal structures ranged from about 40 to about 50 nm, with polydispersity indices of 0.2 to 0.3. The colloidal solution with the lowest concentration of the non-ionic surfactant and phospholipid component was also investigated by small angle X-ray scattering, which indicated the presence of colloidal structures which were probably in the form of unilamellar liposomes.
(§1) In analogy to example 9, colloidal solutions of budesonide were prepared using vitamin E TPGS as non-ionic surfactant component and lecithin of the commercial grade, Lipoid S 100, as phospholipid component. The other excipients and their content remained the same as in example 9.
The taste of the samples was acceptable. The particles size of the colloidal structures was about 50 to 55 nm, with polydispersity indices of 0.2 to 0.3.
as §1, with “using both” for “using”, “TPGS and polysorbate 80 in combination” for “TPGS”
In analogy to example 9, colloidal solutions of budesonide were prepared using macrogol-15-hydroxystearate as non-ionic surfactant component and lecithin of the commercial grade, Lipoid S 100, as phospholipid component. The other excipients and their content remained the same as in example 9.
In analogy to example 9, colloidal solutions of were prepared using polysorbate 80 as non-ionic surfactant component and lecithin of the commercial grade, Lipoid S 100, as phospholipid component. However, fluticasone propionate was used instead of budesonide as poorly water soluble active agent. The other excipients and their content remained the same as in example 9.

solubility ([1]; Tyloxapol 0 wt %, DMPC 1 wt %): 20 µg/mL (≈ 46.5 µM)
solubility ([1]; Tyloxapol 1 wt %, DMPC 0.5 wt %): 268 µg/mL (≈ 622 µM)
solubility ([1]; Tyloxapol 1.5 wt %, DMPC 0 wt %): 204 µg/mL (≈ 474 µM)
Saturation concentration of budesonide in DMPC solutions ([1]; on further increasing the DMPC content): could not be increased
solubility ([2]; Polysorbate 80 0.10 wt.%, Lipoid S100 1.0 wt.%, pH 4.5, read-out: Budesonide solubilized): 360 µg/mL
solubility ([2]; Polysorbate 80 0.15 wt.%, Lipoid S100 1.5 wt.%, pH 4.5, read-out: Budesonide solubilized): 430 µg/mL
solubility ([2]; Polysorbate 80 0.25 wt.%, Lipoid S100 1.5 wt.%, pH 4.5, read-out: Budesonide solubilized): 470 µg/mL
solubility ([2]; Polysorbate 80 0.40 wt.%, Lipoid S100 1.5 wt.%, pH 4.5, read-out: Budesonide solubilized): 500 µg/mL
solubility ([2]; Polysorbate 80 0.50 wt.%, Lipoid S100 2.0 wt.%, pH 4.5, read-out: Budesonide solubilized): 830 µg/mL
solubility ([2]; Polysorbate 80 0.50 wt.%, Lipoid S100 3.0 wt.%, pH 4.5, read-out: Budesonide solubilized): 1090 µg/mL
solubility ([2]; Solutrol HS 15 0.10 wt.%, Lipoid S100 1.5 wt.%, read-out: Budesonide solubilized): 430 µg/mL
solubility ([2]; Solutrol HS 15 0.25 wt.%, Lipoid S100 1.5 wt.%, read-out: Budesonide solubilized): 470 µg/mL
solubility ([2]; Solutrol HS 15 0.50 wt.%, Lipoid S100 1.5 wt.%, read-out: Budesonide solubilized): 480 µg/mL
solubility ([2]; Vitamin E TPGS 0.10 wt.%, Lipoid S100 1.0 wt.%, read-out: Budesonide solubilized): 370 µg/mL
solubility ([2]; Vitamin E TPGS 0.10 wt.%, Lipoid S100 1.5 wt.%, read-out: Budesonide solubilized): 440 µg/mL
solubility ([2]; Vitamin E TPGS 0.25 wt.%, Lipoid S100 1.5 wt.%, read-out: Budesonide solubilized): 460 µg/mL
solubility ([2]; Vitamin E TPGS 0.50 wt.%, Lipoid S100 1.5 wt.%, read-out: Budesonide solubilized): 480 µg/mL
solubility ([2]; Vitamin E TPGS 0.50 wt.%, Lipoid S100 2.0 wt.%, read-out: Budesonide solubilized): 800 µg/mL
solubility ([2]; vitamin E TPGS 0.04 wt.-%, polysorbate 80 0.06 wt.-%, lecithin 1.0 wt.-%, read-out: Budesonide colloidally solubilized concentration): 380 µg/mL
solubility ([2]; vitamin E TPGS 0.2 wt.-%, polysorbate 80 0.3 wt.-%, lecithin 3.0 wt.-%, read-out: Budesonide colloidally solubilized concentration): 950 µg/mL
SMILES: CCCC1O[C@@H]2C[C@H]3[C@@H]4CCC5=CC(=O)C=C[C@]5(C)[C@H]4[C@@H](O)C[C@]3(C)[C@]2(C(=O)CO)O1 (stereo partly shown) [Budesonide, budesonide]

Fluticasone prop. solubilized ([2]; Polysorbate 80 0.10 wt.%, Lipoid S100 1.0 wt.%): 0.07 mg/mL
solubility ([2]; Polysorbate 80 0.50 wt.%, Lipoid S100 3.0 wt.%, read-out: Fluticasone prop. solubilized): 180 µg/mL
SMILES: CCC(=O)O[C@]1(C(=O)SCF)[C@H](C)C[C@H]2[C@@H]3C[C@H](F)C4=CC(=O)C=C[C@]4(C)[C@@]3(F)[C@@H](O)C[C@@]21C [Fluticasone prop., fluticasone propionate]
